ChEMBL document CHEMBL1201861, “Genomics of Drug Sensitity in Cancer screening data, Wellcome Trust Sanger Institute”

Key:
Type in all cases: functional, cell-based
[1] = system: HGC-27; experiment: cells; conditions: Homo sapiens;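 further: growth inhibition of human HGC-27 cells, read out in a cell viability assay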
Description: SANGER: Inhibition of human HGC-27 cell growth in a cell viability assay.

[2] = system: MDA-MB-134-VI; experiment: cells; conditions: Homo sapiens
Description: SANGER: Inhibition of human MDA-MB-134-VI cell growth in a cell viability assay.

[3] = system: CAL-51; experiment: cells; conditions: Homo sapiens;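 further: human CAL-51 cell line, growth inhibition read out via a cell viability assay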
Description: SANGER: Inhibition of human CAL-51 cell growth in a cell viability assay.

[4] = system: HLE; experiment: cells; conditions: Homo sapiens;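 further: growth inhibition of human HLE cells, read out by a cell viability assay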
Description: SANGER: Inhibition of human HLE cell growth in a cell viability assay.

[5] = system: G-361; experiment: cells; conditions: Homo sapiens
[6] = system: NCI-H1793; experiment: cells; conditions: Homo sapiens;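 further: cell growth inhibition, read out by a cell viability assay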
Description: SANGER: Inhibition of human NCI-H1793 cell growth in a cell viability assay.

[7] = system: MRK-nu-1; experiment: cells; conditions: Homo sapiens;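 further: cell viability assay measuring growth suppression of human MRK-nu-1 cells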
Description: SANGER: Inhibition of human MRK-nu-1 cell growth in a cell viability assay.

[8] = system: DU-145; experiment: cells; conditions: Homo sapiens
Description: SANGER: Inhibition of human DU-145 cell growth in a cell viability assay.

[9] = system: HuP-T3; experiment: cells; conditions: Homo sapiens;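 further: HuP-T3 cell growth inhibition, read out with a cell viability assay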
Description: SANGER: Inhibition of human HuP-T3 cell growth in a cell viability assay.

[10] = system: NCI-H345; experiment: cells; conditions: Homo sapiens;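 further: growth inhibition of NCI-H345 cells measured with a cell viability assay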
Description: SANGER: Inhibition of human NCI-H345 cell growth in a cell viability assay.

[11] = system: HT-29; experiment: cells; conditions: Homo sapiens;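 further: growth inhibition of human HT-29 cells, read out by a cell viability assay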
Description: SANGER: Inhibition of human HT-29 cell growth in a cell viability assay.

[12] = system: LU-99A; experiment: cells; conditions: Homo sapiens;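 further: growth inhibition of LU-99A cells, read out with a cell viability assay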
Description: SANGER: Inhibition of human LU-99A cell growth in a cell viability assay.

[13] = system: CAL-62; experiment: cells; conditions: Homo sapiens;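 further: growth inhibition of CAL-62 cells, read out with a cell viability assay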
Description: SANGER: Inhibition of human CAL-62 cell growth in a cell viability assay.

[14] = system: SW626; experiment: cells; conditions: Homo sapiens;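 further: growth inhibition of SW626 cells, measured with a cell viability assay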
Description: SANGER: Inhibition of human SW626 cell growth in a cell viability assay.

[15] = system: HSC-2; experiment: cells; conditions: Homo sapiens;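 further: growth inhibition of human HSC-2 cells, read out by a cell viability assay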
Description: SANGER: Inhibition of human HSC-2 cell growth in a cell viability assay.

[16] = system: ESS-1; experiment: cells; conditions: Homo sapiens;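 further: growth inhibition of human ESS-1 cells, read out by a cell viability assay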
Description: SANGER: Inhibition of human ESS-1 cell growth in a cell viability assay.

[17] = system: KOSC-2; experiment: cells; conditions: Homo sapiens;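 further: growth inhibition of KOSC-2 cells, read out by a cell viability assay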
Description: SANGER: Inhibition of human KOSC-2 cell growth in a cell viability assay.

[18] = system: A673; experiment: cells; conditions: Homo sapiens;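 further: growth inhibition of human A673 cells, read out through a cell viability assay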
Description: SANGER: Inhibition of human A673 cell growth in a cell viability assay.

[19] = system: HT-3; experiment: cells; conditions: Homo sapiens;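 further: growth inhibition measured with a cell viability readout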
Description: SANGER: Inhibition of human HT-3 cell growth in a cell viability assay.

[20] = system: A-375; experiment: cells; conditions: Homo sapiens;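 further: growth inhibition of A375 cells, read out with a cell viability assay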
Description: SANGER: Inhibition of human A375 cell growth in a cell viability assay.

[21] = system: UO-31; experiment: cells; conditions: Homo sapiens
Description: SANGER: Inhibition of human U031 cell growth in a cell viability assay.

[22] = system: SW48; experiment: cells; conditions: Homo sapiens;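 further: growth inhibition of SW48 cells, read out with a cell viability assay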
Description: SANGER: Inhibition of human SW48 cell growth in a cell viability assay.

[23] = system: KYSE-450; experiment: cells; conditions: Homo sapiens;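 further: cell growth inhibition measured by a viability assay in human KYSE-450 cells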
Description: SANGER: Inhibition of human KYSE-450 cell growth in a cell viability assay.

[24] = system: MDA-MB-157; experiment: cells; conditions: Homo sapiens
Description: SANGER: Inhibition of human MDA-MB-157 cell growth in a cell viability assay.

[25] = system: NCI-H28; experiment: cells; conditions: Homo sapiens;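 further: growth inhibition of human NCI-H28 cells, read out as cell viability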
Description: SANGER: Inhibition of human NCI-H28 cell growth in a cell viability assay.

[26] = system: NCI-H1882; experiment: cells; conditions: Homo sapiens;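 further: growth inhibition of the cell line, determined with a viability assay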
Description: SANGER: Inhibition of human NCI-H1882 cell growth in a cell viability assay.

[27] = system: ASPC1; experiment: cells; conditions: Homo sapiens;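 further: growth inhibition of AsPC-1 cells, read out with a cell viability assay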
Description: SANGER: Inhibition of human AsPC-1 cell growth in a cell viability assay.

[28] = system: FTC-133; experiment: cells; conditions: Homo sapiens
[29] = system: HTC-C3; experiment: cells; conditions: Homo sapiens;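 further: inhibition of cell growth, read out with a cell viability assay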
Description: SANGER: Inhibition of human HTC-C3 cell growth in a cell viability assay.

[30] = system: RO82-W-1; experiment: cells; conditions: Homo sapiens;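 further: growth inhibition of human RO82-W-1 cells, measured with a cell viability assay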
Description: SANGER: Inhibition of human RO82-W-1 cell growth in a cell viability assay.

[31] = system: NCCIT; experiment: SANGER: Inhibition of human NCCIT cell growth in a cell viability assay.
[32] = system: GCT; experiment: cells; conditions: Homo sapiens;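 further: GCT cell line proliferation inhibition, read out with a cell viability assay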
Description: SANGER: Inhibition of human GCT cell growth in a cell viability assay.

[33] = system: HCC1954; experiment: cells; conditions: Homo sapiens;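 further: growth inhibition of human HCC1954 cells, read out with a cell viability assay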
Description: SANGER: Inhibition of human HCC1954 cell growth in a cell viability assay.

[34] = system: SN12C; experiment: cells; conditions: Homo sapiens;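 further: growth inhibition of human SN12C cells, measured by a cell viability assay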
Description: SANGER: Inhibition of human SN12C cell growth in a cell viability assay.

[35] = system: EVSA-T; experiment: cells; conditions: Homo sapiens;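 further: growth inhibition of EVSA-T cells, read out with a cell viability assay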
Description: SANGER: Inhibition of human EVSA-T cell growth in a cell viability assay.

[36] = system: SK-MEL-24; experiment: cells; conditions: Homo sapiens;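 further: growth inhibition read out by a cell viability assay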
Description: SANGER: Inhibition of human SK-MEL-24 cell growth in a cell viability assay.

[37] = system: SCC-9; experiment: cells; conditions: Homo sapiens;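 further: Read-out is a cell viability assay, with values giving inhibition of cell growth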
Description: SANGER: Inhibition of human SCC-9 cell growth in a cell viability assay.

[38] = system: SK-N-AS; experiment: cells; conditions: Homo sapiens;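 further: growth inhibition of human SK-N-AS cells, measured with a cell viability assay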
Description: SANGER: Inhibition of human SK-N-AS cell growth in a cell viability assay.

[39] = system: NCI-H1792; experiment: cells; conditions: Homo sapiens;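 further: growth inhibition of human NCI-H1792 cells, read out as cell viability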
Description: SANGER: Inhibition of human NCI-H1792 cell growth in a cell viability assay.

[40] = system: 23132-87; experiment: cells; conditions: Homo sapiens
Description: SANGER: Inhibition of human 23132-87 cell growth in a cell viability assay.

[41] = system: NCI-H1563; experiment: cells; conditions: Homo sapiens;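 further: growth inhibition of human NCI-H1563 cells, read out with a cell viability assay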
Description: SANGER: Inhibition of human NCI-H1563 cell growth in a cell viability assay.

[42] = system: HCC70; experiment: cells; conditions: Homo sapiens;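 further: cell viability assay measuring how strongly the compound suppresses proliferation of HCC70 cells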
Description: SANGER: Inhibition of human HCC70 cell growth in a cell viability assay.

[43] = system: CaR-1; experiment: cells; conditions: Homo sapiens;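 further: growth inhibition of human CaR-1 cancer cells, read out with a cell viability assay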
Description: SANGER: Inhibition of human CaR-1 cell growth in a cell viability assay.

[44] = system: SNU-449; experiment: cells; conditions: Homo sapiens
Description: SANGER: Inhibition of human SNU-449 cell growth in a cell viability assay.

[45] = system: CAL-85-1; experiment: cells; conditions: Homo sapiens;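 further: growth inhibition of human CAL-85-1 cells, read out with a cell viability assay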
Description: SANGER: Inhibition of human CAL-85-1 cell growth in a cell viability assay.

[46] = system: RPMI-6666; experiment: cells; conditions: Homo sapiens
Description: SANGER: Inhibition of human RPMI-6666 cell growth in a cell viability assay.

[47] = system: HOS; experiment: cells; conditions: Homo sapiens;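 further: growth inhibition of human HOS cells, read out with a cell viability assay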
Description: SANGER: Inhibition of human HOS cell growth in a cell viability assay.

[48] = system: TALL-1; experiment: cells; conditions: Homo sapiens;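 further: growth inhibition of cultured human TALL-1 cells, read out by a cell viability assay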
Description: SANGER: Inhibition of human TALL-1 cell growth in a cell viability assay.

[49] = system: SAOS-2; experiment: cells; conditions: Homo sapiens;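 further: growth inhibition of human Saos-2 cells determined by a cell viability assay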
Description: SANGER: Inhibition of human Saos-2 cell growth in a cell viability assay.

[50] = system: U-118-MG; experiment: cells; conditions: Homo sapiens
Description: SANGER: Inhibition of human U-118-MG cell growth in a cell viability assay.

[51] = system: KP-4; experiment: cells; conditions: Homo sapiens;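 further: human KP-4 cells, with growth inhibition read out through a cell viability assay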
Description: SANGER: Inhibition of human KP-4 cell growth in a cell viability assay.

[52] = system: IGROV-1; experiment: cells; conditions: Homo sapiens;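 further: reduction of IGROV-1 cell growth, read out with a viability assay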
Description: SANGER: Inhibition of human IGROV-1 cell growth in a cell viability assay.

[53] = system: CPC-N; experiment: cells; conditions: Homo sapiens;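 further: growth inhibition of CPC-N cells, with a cell viability assay as the readout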
Description: SANGER: Inhibition of human CPC-N cell growth in a cell viability assay.

[54] = system: NCI-H2081; experiment: cells; conditions: Homo sapiens;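 further: growth inhibition of human NCI-H2081 cells, read out with a cell viability assay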
Description: SANGER: Inhibition of human NCI-H2081 cell growth in a cell viability assay.

[55] = system: HT-1376; experiment: cells; conditions: Homo sapiens
Description: SANGER: Inhibition of human HT-1376 cell growth in a cell viability assay.

[56] = system: LN-405; experiment: cells; conditions: Homo sapiens
Description: SANGER: Inhibition of human LN-405 cell growth in a cell viability assay.

[57] = system: JIYOYE; experiment: cells; conditions: Homo sapiens
Description: SANGER: Inhibition of human JiyoyeP-2003 cell growth in a cell viability assay.

[58] = system: A204; experiment: cells; conditions: Homo sapiens;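 further: growth inhibition of human A204 cells, read out with a cell viability assay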
Description: SANGER: Inhibition of human A204 cell growth in a cell viability assay.

[59] = system: NCI-H1694; experiment: cells; conditions: Homo sapiens;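 further: cell viability assay measuring inhibition of growth in human NCI-H1694 cells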
Description: SANGER: Inhibition of human NCI-H1694 cell growth in a cell viability assay.

[60] = system: RL; experiment: cells; conditions: Homo sapiens
Description: SANGER: Inhibition of human RL cell growth in a cell viability assay.

[61] = system: MIA PaCa-2; experiment: cells; conditions: Homo sapiens;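 further: growth inhibition of MIA PaCa-2 cells, read out with a cell viability assay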
Description: SANGER: Inhibition of human MIA-PaCa-2 cell growth in a cell viability assay.

[62] = system: AU565; experiment: cells; conditions: Homo sapiens;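 further: cell viability assay measuring growth inhibition of human AU565 cells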
Description: SANGER: Inhibition of human AU565 cell growth in a cell viability assay.

[63] = system: CWR22R; experiment: cells; conditions: Homo sapiens, 22Rv1;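 further: growth inhibition of 22Rv1 cells, read out with a cell viability assay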
Description: SANGER: Inhibition of human 22RV1 cell growth in a cell viability assay.

## CCNC(=O)c1noc(-c2cc(C(C)C)c(O)cc2O)c1-c1ccc(CN2CCOCC2)cc1 [LUMINESPIB]
[1]
  IC50: 17.6 nM
[2]
  IC50: 174 nM
[3]
  IC50: 3.25 nM
[4]
  IC50: 60.8 nM
[5]
  IC50: 26.8 nM
[6]
  IC50: > 256 nM
[7]
  IC50: 23 nM
[8]
  IC50: 12.9 nM
[9]
  IC50: 16.5 nM
[10]
  IC50: > 256 nM
[11]
  IC50: 43.6 nM
[12]
  IC50: 72.9 nM
[13]
  IC50: 25.7 nM
[14]
  IC50: 21.2 nM
[15]
  IC50: 5.18 nM
[16]
  IC50: 78.7 nM
[17]
  IC50: 41.1 nM
[18]
  IC50: 104 nM
[19]
  IC50: > 256 nM
[20]
  IC50: 21.7 nM
[21]
  IC50: 47.7 nM
[22]
  IC50: 40.3 nM
[23]
  IC50: 13.5 nM
[24]
  IC50: > 256 nM
[25]
  IC50: > 256 nM
[26]
  IC50: > 256 nM
[27]
  IC50: > 256 nM
[28]
  IC50: > 256 nM
[29]
  IC50: 26.1 nM
[30]
  IC50: > 256 nM
[31]
  IC50: 66 nM
[32]
  IC50: 41.6 nM
[33]
  IC50: > 256 nM
[34]
  IC50: 247 nM
[35]
  IC50: 92.7 nM
[36]
  IC50: 42.8 nM
[37]
  IC50: 58.7 nM
[38]
  IC50: > 256 nM
[39]
  IC50: 45.8 nM
[40]
  IC50: 105 nM
[41]
  IC50: > 256 nM
[42]
  IC50: 54.5 nM
[43]
  IC50: > 256 nM
[44]
  IC50: 20.3 nM
[45]
  IC50: 11.9 nM
[46]
  IC50: 8.52 nM
[47]
  IC50: 1.38 nM
[48]
  IC50: > 256 nM
[49]
  IC50: 76 nM
[50]
  IC50: 25.8 nM
[51]
  IC50: 36.6 nM
[52]
  IC50: 8.14 nM
[53]
  IC50: > 256 nM
[54]
  IC50: 152 nM
[55]
  IC50: 98.6 nM
[56]
  IC50: > 256 nM
[57]
  IC50: 33.9 nM
[58]
  IC50: 21.2 nM
[59]
  IC50: > 256 nM
[60]
  IC50: > 256 nM
[61]
  IC50: 15.1 nM
[62]
  IC50: 118 nM
[63]
  IC50: 35.1 nM

## C/C=C(/C)C(=O)O[C@H]1C(C)=C2[C@H]([C@@H]1OC(=O)CCCCCCC)[C@@](C)(OC(C)=O)C[C@H](OC(=O)CCC)[C@@]1(O)[C@H]2OC(=O)[C@@]1(C)O [THAPSIGARGIN]
[1]
  IC50: < 2 nM
[2]
  IC50: > 512 nM
[3]
  IC50: 0.971 nM
[4]
  IC50: 2.75 nM
[5]
  IC50: 10.7 nM
[6]
  IC50: > 512 nM
[7]
  IC50: 23.2 nM
[8]
  IC50: 8.63 nM
[9]
  IC50: 18.1 nM
[10]
  IC50: 37 nM
[11]
  IC50: 5.4 nM
[12]
  IC50: 1.36 nM
[13]
  IC50: 71.6 nM
[14]
  IC50: 17.7 nM
[15]
  IC50: 2.99 nM
[16]
  IC50: 7.58 nM
[17]
  IC50: 425 nM
[18]
  IC50: 7.24 nM
[19]
  IC50: 21.7 nM
[20]
  IC50: < 2 nM
[21]
  IC50: 57.7 nM
[22]
  IC50: 1.67 nM
[23]
  IC50: 0.777 nM
[24]
  IC50: > 512 nM
[25]
  IC50: > 512 nM
[26]
  IC50: > 512 nM
[27]
  IC50: > 512 nM
[28]
  IC50: > 512 nM
[29]
  IC50: 21.7 nM
[30]
  IC50: > 512 nM
[31]
  IC50: < 2 nM
[32]
  IC50: 5.3 nM
[33]
  IC50: 24.9 nM
[34]
  IC50: 16.6 nM
[35]
  IC50: 122 nM
[36]
  IC50: > 512 nM
[37]
  IC50: 447 nM
[38]
  IC50: 48.5 nM
[39]
  IC50: 0.526 nM
[40]
  IC50: 31.4 nM
[41]
  IC50: 199 nM
[42]
  IC50: 22.6 nM
[43]
  IC50: 8.62 nM
[44]
  IC50: 4.18 nM
[45]
  IC50: 6.03 nM
[46]
  IC50: 42.6 nM
[47]
  IC50: 1.96 nM
[48]
  IC50: 21.7 nM
[49]
  IC50: 14.7 nM
[50]
  IC50: 31.9 nM
[51]
  IC50: 2.64 nM
[52]
  IC50: < 2 nM
[53]
  IC50: 10 nM
[54]
  IC50: > 512 nM
[55]
  IC50: 2.75 nM
[56]
  IC50: > 512 nM
[57]
  IC50: 7.21 nM
[58]
  IC50: 17.3 nM
[59]
  IC50: 72.8 nM
[60]
  IC50: > 512 nM
[61]
  IC50: 3.3 nM
[62]
  IC50: 1.2 nM
[63]
  IC50: 1.17 nM
